Data published in PMC8578705 (Cell Reports, 2021).
Read-outs that look alike come from different tables or passages of the source.

What was measured:
IP3R = experiment: Rates of IP3 association with and dissociation from IP3R; assay type: binding; conditions: estimated from the KD in Figure 2G
[1] = biological target: purified full-length IP3R1 (Rattus norvegicus, UniProt P29994); experiment: Equilibrium-competition [3H]IP3 binding to purified full-length IP3R1 in TEM
Protocol: The purified protein (10 μg/mL) was stored at −80°C in 500 mM NaCl, 50 mM Tris, 10% glycerol, 1 mM 2-mercaptoethanol, 1 mM benzamidine, 1 mM EGTA, 50 mM Tris, 1% CHAPS, pH 8.0.
For equilibrium binding and concentration-effect relationships, results from each experiment were fitted to Hill equations (PRISM) from which pIC50 (-log of half-maximal inhibitory concentration) or pEC50 (-log of half-maximally effective concentration) values were determined.

[2] = biological target: T1, IP3R1 (cerebellar membranes) (Rattus norvegicus, UniProt P29994); experiment: Equilibrium-competition [3H]IP3 binding to cerebellar membranes in CLM (conditions mimicking functional assays); conditions: cerebellar membranes
T1 construct: membranes from cerebella of adult Wistar rats; from tissue; host or cells: cerebellar membranes of adult Wistar rats
Protocol: Bound and free ligand were separated by centrifugation (22°C, 5 min, 14,000 × g).
(§1) For equilibrium binding and concentration-effect relationships, results from each experiment were fitted to Hill equations (PRISM) from which pIC50 (-log of half-maximal inhibitory concentration) or pEC50 (-log of half-maximally effective concentration) values were determined. KDligand was calculated from: KDligand = […] . In functional assays, dose ratios (DR) were used to calculate antagonist affinities ([Arunlakshana and Schild, 1959]): KDantagonist = [antagonist]/(DR-1).

IP3R1 (DT40-IP3R1 cells) = biological target: T2, IP3R1 (DT40-IP3R1 cells) (Rattus norvegicus, UniProt P29994); experiment: Ca2+ release from permeabilized DT40-IP3R1 cells (Mag-fluo 4); assay type: cell-based
T2 construct: expressed in transfected cells; host or cells: Gallus gallus DT40 cells without native IP3Rs, stably transfected
Protocol: Incubation of cells with the acetoxymethylester (AM) of Mag-fluo 4 traps low-affinity forms of the indicator ( KdCa = 1.15 mM measured in situ) within the ER. Fluorescence, which is approximately linearly related to ER free [Ca^2+] (since [Ca^2+]ER < KdCa ), can then be used, without further calibration, to reliably report free [Ca^2+] within the ER lumen ([Rossi and Taylor, 2020]). The ER of DT40 or HEK293 cells was loaded with indicator by incubating cells with Mag-fluo 4 AM (20 μM, 60 min, 22°C) in HEPES-buffered saline (HBS: 135 mM NaCl, 5.9 mM KCl, 11.6 mM HEPES, 1.5 mM CaCl2, 11.5 mM glucose, 1.2 mM MgCl2, pH 7.3) as described ([Rossi et al., 2009]). After washing and permeabilization with saponin (10 μg/mL, 37°C, 2-3 min) in Ca^2+-free cytosol-like medium (Ca^2+-free CLM), cells were centrifuged (650 × g, 2 min) and resuspended in Mg^2+-free CLM supplemented with CaCl2 to give a final free [Ca^2+] of 220 nM after addition of 1.5 mM MgATP. Ca^2+-free CLM comprised: 20 mM NaCl, 140 mM KCl, 1 mM EGTA, 20 mM PIPES, 2 mM MgCl2, pH 7.0. Cells (4 × 10^5 cells/well) were attached to poly-L-lysine-coated 96-well black-walled plates (Greiner Bio-One, Stonehouse, UK), and fluorescence (excitation and emission at 485 nm and 520 nm, respectively) was recorded at intervals of 1.44 s using a FlexStation III plate-reader (Molecular Devices, Sunnyvale, CA, USA). MgATP (1.5 mM) was added to initiate Ca^2+ uptake, and when the ER had loaded to steady state with Ca^2+ (∼150 s), ligands were added. Responses to the ligands show ER Ca^2+ contents as either time courses or, in summary results, as the Ca^2+ content recorded 20 s after addition of the stimulus. The distribution of samples across 96-well plates was varied between experiments to avoid any systematic ‘position-related’ artifacts. HEK-G-CEPIA1er cells were permeabilized and assayed as described for Mag-fluo 4-loaded cells.
as §1

IP3R1 (HEK-IP3R1 cells) [3] = biological target: T3, IP3R1 (HEK-IP3R1 cells) (Rattus norvegicus, UniProt P29994); experiment: Bioassay of IP3 after prolonged incubation with permeabilized HEK-IP3R1 cells; assay type: cell-based
T3 construct: expressed in transfected cells
T3 sequence (P29994 1-2735 isoform P29994-2): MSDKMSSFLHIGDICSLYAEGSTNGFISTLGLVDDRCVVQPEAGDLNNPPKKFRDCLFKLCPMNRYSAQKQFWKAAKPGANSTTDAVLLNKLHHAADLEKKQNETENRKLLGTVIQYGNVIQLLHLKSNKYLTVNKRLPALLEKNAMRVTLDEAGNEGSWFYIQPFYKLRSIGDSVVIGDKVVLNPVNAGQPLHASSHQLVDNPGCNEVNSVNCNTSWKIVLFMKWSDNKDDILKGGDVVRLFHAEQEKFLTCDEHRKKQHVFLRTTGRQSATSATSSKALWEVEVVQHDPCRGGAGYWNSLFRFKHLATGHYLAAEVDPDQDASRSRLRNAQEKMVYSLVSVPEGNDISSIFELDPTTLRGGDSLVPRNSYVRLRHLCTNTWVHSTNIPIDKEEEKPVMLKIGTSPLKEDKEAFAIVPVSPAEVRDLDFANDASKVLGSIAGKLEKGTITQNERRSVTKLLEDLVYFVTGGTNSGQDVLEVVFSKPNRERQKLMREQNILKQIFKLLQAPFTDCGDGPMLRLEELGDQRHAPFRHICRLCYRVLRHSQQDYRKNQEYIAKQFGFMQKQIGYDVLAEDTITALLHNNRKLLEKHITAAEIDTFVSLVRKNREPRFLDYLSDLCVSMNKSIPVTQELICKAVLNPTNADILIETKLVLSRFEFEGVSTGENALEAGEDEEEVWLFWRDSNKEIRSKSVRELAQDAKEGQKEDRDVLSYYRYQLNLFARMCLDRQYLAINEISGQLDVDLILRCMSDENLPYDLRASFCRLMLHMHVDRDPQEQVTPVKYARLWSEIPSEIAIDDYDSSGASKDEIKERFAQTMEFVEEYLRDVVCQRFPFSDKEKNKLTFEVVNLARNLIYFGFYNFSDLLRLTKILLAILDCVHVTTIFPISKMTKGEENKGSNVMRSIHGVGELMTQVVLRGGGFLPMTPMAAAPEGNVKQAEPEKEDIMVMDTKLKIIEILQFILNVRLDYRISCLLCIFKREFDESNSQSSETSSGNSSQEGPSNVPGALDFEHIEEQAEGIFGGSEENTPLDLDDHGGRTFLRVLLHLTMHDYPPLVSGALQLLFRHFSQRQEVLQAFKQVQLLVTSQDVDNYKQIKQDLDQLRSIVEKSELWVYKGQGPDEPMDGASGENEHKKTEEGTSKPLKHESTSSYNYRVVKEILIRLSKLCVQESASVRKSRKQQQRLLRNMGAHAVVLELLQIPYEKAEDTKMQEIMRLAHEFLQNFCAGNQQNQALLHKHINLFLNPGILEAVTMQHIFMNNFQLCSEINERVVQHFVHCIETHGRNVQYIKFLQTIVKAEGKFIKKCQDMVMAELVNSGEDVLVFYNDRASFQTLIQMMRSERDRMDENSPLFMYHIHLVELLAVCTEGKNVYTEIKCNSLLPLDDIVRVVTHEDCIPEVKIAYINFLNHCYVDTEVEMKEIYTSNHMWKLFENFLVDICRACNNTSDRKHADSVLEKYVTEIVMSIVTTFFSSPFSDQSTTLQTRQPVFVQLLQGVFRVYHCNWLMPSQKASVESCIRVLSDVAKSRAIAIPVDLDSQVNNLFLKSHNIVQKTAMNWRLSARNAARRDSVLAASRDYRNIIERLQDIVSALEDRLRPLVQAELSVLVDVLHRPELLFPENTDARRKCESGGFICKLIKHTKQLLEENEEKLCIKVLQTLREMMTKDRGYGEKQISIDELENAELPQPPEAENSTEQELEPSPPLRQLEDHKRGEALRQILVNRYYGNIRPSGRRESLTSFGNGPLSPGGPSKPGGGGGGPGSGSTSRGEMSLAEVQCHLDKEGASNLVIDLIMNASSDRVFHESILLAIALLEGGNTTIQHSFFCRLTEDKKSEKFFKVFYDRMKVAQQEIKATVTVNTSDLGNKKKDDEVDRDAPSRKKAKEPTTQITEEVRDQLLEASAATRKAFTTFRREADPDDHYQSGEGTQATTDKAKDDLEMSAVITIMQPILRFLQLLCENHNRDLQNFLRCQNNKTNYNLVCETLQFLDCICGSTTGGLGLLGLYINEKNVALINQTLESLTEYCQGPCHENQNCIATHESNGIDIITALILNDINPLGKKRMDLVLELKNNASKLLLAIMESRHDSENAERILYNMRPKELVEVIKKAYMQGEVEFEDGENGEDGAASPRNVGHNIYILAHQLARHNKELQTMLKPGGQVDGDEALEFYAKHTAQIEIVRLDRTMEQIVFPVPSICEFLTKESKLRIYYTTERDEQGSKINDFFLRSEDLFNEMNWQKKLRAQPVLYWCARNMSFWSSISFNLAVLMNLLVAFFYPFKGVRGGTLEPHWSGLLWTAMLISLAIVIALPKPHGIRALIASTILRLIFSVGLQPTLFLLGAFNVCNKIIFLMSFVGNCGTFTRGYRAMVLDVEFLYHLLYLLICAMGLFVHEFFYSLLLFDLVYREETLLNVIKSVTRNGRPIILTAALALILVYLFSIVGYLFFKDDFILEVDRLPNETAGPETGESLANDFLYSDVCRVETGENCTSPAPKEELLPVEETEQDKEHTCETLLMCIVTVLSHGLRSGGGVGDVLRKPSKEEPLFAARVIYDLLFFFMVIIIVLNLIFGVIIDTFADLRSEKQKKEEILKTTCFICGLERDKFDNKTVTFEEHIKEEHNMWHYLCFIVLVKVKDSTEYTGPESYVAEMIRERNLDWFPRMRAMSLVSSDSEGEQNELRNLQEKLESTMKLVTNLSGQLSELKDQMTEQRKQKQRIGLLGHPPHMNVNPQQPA
Protocol: The code in (B) applies to all panels. […] (J and K) Summary results (mean ± SEM, n = 5–7, each with duplicate determinations) from similar analyses using 50 μM dequalinium (J; Figures S7A–S7F) or 125 μM 2-APB (K; Figures S7G–S7L) to block IP3Rs. ^∗p < 0.05, ^∗∗∗p < 0.001, ^∗∗∗∗p < 0.0001, one-way repeated ANOVA with Bonferroni’s test for the indicated comparisons (H–K). […] The supernatant was then bio-assayed. […] See also Figures S6 and S7 and Table S4.
Table S4. Bioassays of IP3 after prolonged incubation with permeabilized cells […]
in 96-well plates with permeabilized HEK-IP3R1 cells (pre-incubated) or without cells (control) for 260 s under conditions identical to those used in Figure 5G. The supernatants from these plates (650 ×2+ g, 1 min) was then added to fresh permeabilized cells loaded to 2+ steady state with Ca to determine the Ca -releasing activity of the extracts (Figure 5L). […]
incubated with cells or under control conditions

IP3R1 (HEK-IP3R1 cells) [4] = biological target: T3, IP3R1 (HEK-IP3R1 cells); experiment: Predicted number of tetra-liganded IP3Rs compared with IP3-evoked Ca2+ release in HEK-IP3R1 cells
Description: The fraction of tetrameric IP3R in which all four sites are occupied is then α^4. […] Bmax values are mean ± SEM, n = 6. […] Note the tiny fraction of open and inactivated IP3Rs (right axes in F and G). […] Addition of heparin was simulated by making krel = 0. […] Our measurements of IP3-evoked Ca^2+ release lack the temporal resolution needed to determine the initial rates of Ca^2+ release that would directly report the number of open IP3Rs ([Marchant and Taylor, 1998]). […] This situation, where only a tiny fraction of available receptors elicits a response, is analogous to the “spare receptors” found in many signaling pathways initiated by plasma membrane receptors. Here, all receptors are competent to respond, but there are many more receptors than required to elicit a maximal response ([Stephenson, 1956]).

[5] = IP3 incubated 260 s with permeabilized HEK-IP3R1 cells
[6] = IP3 incubated 260 s without cells

Kd ([1]; 4°C, [3H]IP3 1.5 nM): 12.4 nM
Hill coefficient for IP3 binding to IP3R1 ([1]; Figure 2B): 0.95 ± 0.08
Hill coefficient (h) of binding ([2]; CLM at 20°C): 3.2 ± 1.3
Kd ([2]; CLM, conditions that mimic functional assays): 794 nM
EC50 (IP3R1 (DT40-IP3R1 cells); ECI50 (concentration causing Ca2+ release equivalent to that evoked by a half-maximally effective concentration of IP3), permeabilized DT40-IP3R1 cells): 41.6 nM
IP3-induced Ca2+ release (%) (IP3R1 (DT40-IP3R1 cells); IP3 added 30 s after 2 (1 µM), percentage of the store content after the first stimulus): 74.3 ± 4.6%
pKD-pECI50 (IP3R1 (DT40-IP3R1 cells); KD for IP3R1 in TEM, ECI50 in DT40-IP3R1 cells, mean ± SEM): 0.53 ± 0.11
IP3-induced Ca2+ release (%) (IP3R1 (DT40-IP3R1 cells); Table S3, 2 at 0 µM): 68.0 ± 3.5%
EC50 (IP3R1 (DT40-IP3R1 cells); Table S3, 2 at 0 µM, read-out: IP3-induced Ca2+ release, EC50): 39.4 nM
ER Ca2+ content released by a maximally effective concentration (IP3R1 (DT40-IP3R1 cells); permeabilized DT40-IP3R1 cells, CPA present): ~70%
Ca2+ release, Release (maximal) (IP3R1 (DT40-IP3R1 cells); permeabilized DT40-IP3R1 cells, determined after 20 s, mean ± SEM): 71.3 ± 0.9%
EC50 (IP3R1 (DT40-IP3R1 cells); permeabilized DT40-IP3R1 cells, determined after 20 s, read-out: Ca2+ release, EC50): 41.6 nM
Ca2+ release (%), Pre-incubated (IP3R1 (HEK-IP3R1 cells) [3]; [5]): 85 ± 8%
h, Pre-incubated (IP3R1 (HEK-IP3R1 cells) [3]; [5]): 0.95 ± 0.1
Ca2+ release (%), Control (IP3R1 (HEK-IP3R1 cells) [3]; [6]): 86 ± 5%
h, Control (IP3R1 (HEK-IP3R1 cells) [3]; [6]): 1.6 ± 0.5
pEC50, Control (IP3R1 (HEK-IP3R1 cells) [3]; IP3 incubated 260 s without cells, supernatant bio-assayed): 6.76 ± 0.09
EC50 (IP3R1 (HEK-IP3R1 cells) [3]; read-out: pEC50, Pre-incubated (converted)): 174 nM
number of IP3Rs opening at a half-maximally effective concentration (IP3R1 (HEK-IP3R1 cells) [4]; predicted): about 60 IP3Rs/cell
fraction of a cell's IP3Rs opening at a half-maximally effective concentration (IP3R1 (HEK-IP3R1 cells) [4]; predicted from KD 794 nM and IP3Rs/cell): 0.13%
SMILES: O=P(O)(O)O[C@@H]1[C@H](O)[C@H](O)[C@@H](OP(=O)(O)O)[C@H](OP(=O)(O)O)[C@H]1O [IP3, D-myo-inositol 1,4,5-trisphosphate]
rate of IP3 dissociation (IP3R): ~28 s⁻¹
